Experimental data as given in patent US20220062240A1, “METHODS OF TREATING CANCER USING A CLK INHIBITOR” (BioSplice Therapeutics, Inc., priority 2018, published 2022).
pEC50, pIC50: −log10 of the molar value. Like-named read-outs stand apart in the source and are kept apart here.

Key:
[1] = system: six gastric cancer (GC) cell lines; assay: CellTiter-Blue Cell Viability Assay, panel of gastric cancer cell lines; format: cell-based; details: Homo sapiens
Experimental: Effect on cell proliferation was performed using the CellTiter-Blue*® viability assay or the CellTiter-Glo© Viability Assay as recommended by the manufacturer (Promega).
Cells were plated in a black-walled, clear-bottomed 96-well plates with ˜1.5-3.0×10^3 cells/well in appropriate medium containing 10% FBS. […] Fluorescence signal was measured at 560ex/590em nm using the Cytation3 multimodal plate reader (BioTek).

CLK4 = molecular target: T1, CLK4 (Homo sapiens, UniProt Q9HAZ1); assay: Kinase IC50 (SelectScreen); format: biochemical
T1 construct: purchased ThermoFisher SelectScreen

NCI-N87 GC tumors = assay: NCI-N87 tumor xenograft; format: in vivo, mice; details: NCI-N87, oral
Experimental: […]. QD=daily; QOD=every other day.
The tumor volumes were measured twice a week. […].
(§1) All tumor xenograft studies are performed in accordance with approved Samumed, LLC Animal Committee protocols. Athymic nude Foxn1 mice are inoculated subcutaneously in the right flank region with ˜3×10^6 SW480 CRC cells, ˜4×10^6 HCT-116 CRC cells, or ˜5×10^6 NCI-N87 GC cells/mouse. PDX studies are performed by Crown Bioscience. Tumor fragments from stock mice inoculated with selected primary human colorectal cancer tissues are harvested and used for inoculation into BALB/c nude mice. Each mouse is inoculated subcutaneously at the right flank with primary human colorectal cancer model CR2545 fragment (2-3 mm in diameter). For all studies, when tumors reached -100-200 mm^3, tumors are randomized, and dosing is initiated. […] This value reflects the degree of tumor growth inhibition relative to the vehicle-treated group.

SW480 CRC tumors = assay: SW480 tumor xenograft; format: in vivo, mice; details: SW480, oral
Experimental: Dosing was initiated when tumors were 100-200 mm^3 in size and measurements performed twice per week. The data are presented as Mean±SEM (n=6-7 mice per each group. *P<0.05, student's t-test).
For all studies, all doses were well-tolerated, with acceptable body weight changes (<−10%) compared to baseline by end of the studies (FIGS. 18A-C).
as §1

SW480 cells = assay: Wnt pathway gene (qRT-PCR) and protein (immunoblot) expression; format: cell-based, human
Experimental: Fold-change relative to DMSO is shown (n=3 biological replicates per group, Mean±SD, **P<0.01; ***P<0.001, student's two-tailed t-test).
(§2) FIG. 6D is an immunoblot showing Wnt pathway-related protein expression in SW480 cells treated as indicated for 24 hours. The proteins were separated into nuclear and cytoplasmic fractions. GAPDH and Lamin B1 represent cytoplasmic and nuclear protein loading controls, respectively. The blots are representative of two experiments.
as §2, with “6E” for “6D”, “48” for “24”
The fold-change relative to DMSO is shown (n=3 biological replicates per group, Mean±SD, *P<0.05; **P<0.01; ***P<0.001, student's two-tailed t-test).
FIG. 7C is an immunoblot showing protein expression of hits identified in FIG. 7A. SW480 cells were treated as indicated for 24 hours and proteins were separated into nuclear and cytoplasmic fractions. GAPDH and Lamin B1 represent the cytoplasmic and nuclear protein loading controls, respectively. The blots are representative of two experiments.
For indicated experiments, cells were pelleted by centrifugation and washed with PBS and protein from the cell pellet was fractionated into cytoplasmic and nuclear fractions using a NE-PER™Nuclear and Cytoplasmic Extraction Reagents kit containing Halt™ protease and phosphatase inhibitors (Thermo Fisher). Protein concentrations of the samples were quantified using the Pierce Micro BCA protein assay kit (Thermo Fisher). […] Primary antibodies were incubated overnight at 4° C., with GAPDH, Lamin B1 or β-actin being used as loading controls (refer to Table 19 for primary antibodies and dilutions used).
Total RNA was isolated using RNeasy Plus mini kit (Qiagen) or MagMAX Total RNA kit (Thermo Fisher) as per the manufacturers' protocol. cDNA was synthesized using the iScript cDNA Synthesis Kit (Bio-Rad), followed before performing qRT-PCR. Reactions were then run on a real-time PCR system (CFX384; Bio-Rad). Relative gene expression was determined by normalizing to GAPDH using the ΔΔCt method.

[2] = system: EF1α-luciferase reporter in SW480 cells; assay: Control EF1α-luciferase reporter counterscreen; format: cell-based; details: Homo sapiens, non-specific control reporter, read-out: EC50 EF1α-luciferase reporter (EF1α-LucF)
Experimental: Human colorectal cancer cell line SW480, stably expressing the Wnt responsive TOPflash promoter linked to luciferase gene (TOPflash) was used along with SW480 stably expressing a control EF1a-Luciferase reporter gene (GenTarget #LVP434) as a counterscreen. […] Cells were plated at ˜10,000 cells/well and incubated for 40 hours. Luminescence was detected using Bright-Glo (Promega Corp.).

IRAK1 = molecular target: T2, IRAK1 (Homo sapiens, UniProt P51617); assay: Kinase IC50 (SelectScreen); format: biochemical; details: Table 8
T2 construct: purchased ThermoFisher SelectScreen

[3] = SW480, 24 hours, compared to DMSO

T2 sequence (P51617 whole entry): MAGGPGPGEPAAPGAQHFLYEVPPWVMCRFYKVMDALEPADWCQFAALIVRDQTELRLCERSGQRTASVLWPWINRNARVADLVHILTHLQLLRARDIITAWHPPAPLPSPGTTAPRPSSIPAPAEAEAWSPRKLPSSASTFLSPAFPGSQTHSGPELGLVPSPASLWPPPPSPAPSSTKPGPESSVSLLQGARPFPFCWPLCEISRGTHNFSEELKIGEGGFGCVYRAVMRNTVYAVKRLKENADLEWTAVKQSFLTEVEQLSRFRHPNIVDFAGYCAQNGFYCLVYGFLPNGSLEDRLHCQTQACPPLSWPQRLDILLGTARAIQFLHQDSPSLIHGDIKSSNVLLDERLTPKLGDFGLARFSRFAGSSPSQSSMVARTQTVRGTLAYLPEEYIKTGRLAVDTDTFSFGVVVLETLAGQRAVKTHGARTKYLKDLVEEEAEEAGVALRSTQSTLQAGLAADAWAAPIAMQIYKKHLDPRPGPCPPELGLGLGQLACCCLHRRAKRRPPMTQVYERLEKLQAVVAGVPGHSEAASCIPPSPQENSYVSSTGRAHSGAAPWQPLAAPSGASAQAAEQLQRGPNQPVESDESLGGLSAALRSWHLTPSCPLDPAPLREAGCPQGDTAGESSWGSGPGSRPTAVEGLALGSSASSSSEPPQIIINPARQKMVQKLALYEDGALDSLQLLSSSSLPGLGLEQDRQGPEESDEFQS
T1 sequence (Q9HAZ1 whole entry): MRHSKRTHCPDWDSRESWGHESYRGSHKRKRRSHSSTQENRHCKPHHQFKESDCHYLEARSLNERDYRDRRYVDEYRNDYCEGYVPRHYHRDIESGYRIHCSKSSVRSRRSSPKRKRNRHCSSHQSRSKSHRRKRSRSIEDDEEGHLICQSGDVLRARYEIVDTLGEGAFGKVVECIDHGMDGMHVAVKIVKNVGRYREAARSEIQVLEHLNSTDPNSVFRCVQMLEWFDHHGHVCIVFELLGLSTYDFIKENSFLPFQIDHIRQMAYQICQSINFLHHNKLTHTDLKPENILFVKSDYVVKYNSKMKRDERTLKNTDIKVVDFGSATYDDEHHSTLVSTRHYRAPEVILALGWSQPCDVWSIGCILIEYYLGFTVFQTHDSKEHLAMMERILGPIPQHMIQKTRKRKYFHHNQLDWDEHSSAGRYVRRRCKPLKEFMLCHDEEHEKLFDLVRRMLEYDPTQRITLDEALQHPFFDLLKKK

In the case of `CN1CCN(c2cc(C(=O)Nc3cc4cc(-c5cnn(C)c5)ccc4cn3)ccn2)CC1` [Compound 12], the pEC50 ([1]; gastric lines other than KATO III and NCI-N87, read-out: EC50 of the remaining cell lines) was > 6.52, the pEC50 ([1]; six gastric cancer cell lines, read-out: Average EC50 of all cell lines) was 6.75 and the pIC50 (CLK4) was 9.00. For the same compound, the “tumor growth inhibition (TGI)” value (NCI-N87 GC tumors; 12.5 mg/kg/day QD) was 39%, the “tumor growth inhibition (TGI)” value (NCI-N87 GC tumors; 25 mg/kg QOD) was 63% and the “animals with signs of tumor regressions at the end of study” value (NCI-N87 GC tumors; 25 mg/kg/day QD) was 5 of 7. For the same compound, the “tumor growth inhibition (TGI)” value (NCI-N87 GC tumors; 25 mg/kg/day QD, relative to vehicle) was 82%, the “tumor growth inhibition (TGI)” value (SW480 CRC tumors; 12.5 mg/kg QD) was 55% and the “tumor growth inhibition (TGI)” value (SW480 CRC tumors; 12.5 mg/kg QOD) was 60%. The “tumor growth inhibition (TGI)” value (SW480 CRC tumors; 25 mg/kg QD, relative to vehicle) was 83%, the “tumor growth inhibition (TGI)” value (SW480 CRC tumors; 25 mg/kg QOD) was 69% and the “tumor growth inhibition (TGI)” value (SW480 CRC tumors; remaining dose groups (other than 25 mg/kg QD)) was > 50%. The “cytoplasmic and nuclear protein levels of β-catenin” value (SW480 cells; SW480) was “unaffected”, the “Wnt pathway protein expression in cytoplasmic or nuclear fractions” value (SW480 cells; SW480, 24 or 48 hours, all tested proteins except β-catenin) was “inhibition of protein expression” and the FRZB gene expression (SW480 cells; SW480, 24 hours) was “Upregulation”. The GSK3β gene expression (SW480 cells; SW480, 24 hours) was “no effect”, the PPP3CC gene expression (SW480 cells; SW480, 24 hours) was “inhibitory effect” and the “gene and protein expression of LRP6” value (SW480 cells; SW480, 24 hours) was “inhibited, but not as potently as LRP5”. The “gene expression of AXIN2, LEF1, MYC, TCF7, CTNNB1 and TCF7L2” value (SW480 cells; [3]) was “dose-dependent decrease”, the “gene expression of LRP5, DVL2, BTRC, ERRB2, MAPK8, PKN1” value (SW480 cells; [3]) was “significantly downregulated” and the “protein expression of LRP5, LRP6, DVL2, β-TrcP and HER2” value (SW480 cells; SW480, 24 hours, relative to DMSO) was “pronounced dose-dependent inhibition”. The “inhibitory effects on MAPK8 and PKN1 protein expression” value (SW480 cells; SW480, compared to vehicle) was “less profound”, the pEC50 [2] was < 5.00 and the pIC50 (IRAK1) was 7.70.
